These results are taken from paper PMC9775191, “A Subset Screen of the Compounds Australia Scaffold Library Identifies 7-Acylaminodibenzoxazepinones as Potent and Selective Hits for Anti-Giardia Drug Discovery” (Biomedicines, 2022).

The test system of one test is G. duodenalis BRIS/91/HEPU/1279. The test can be described thus: Primary Giardia screen at 10 µM (live-cell imaging, automated counting). It is filed as cell-based, Giardia duodenalis. The settings on record: 24 h. The protocol:
Each compound was assessed in singlicate, at a final concentration of 10 μM (0.4 μL of a 5 mM stock; diluted to a final volume of 200 μL in culture medium; 0.2% DMSO). […] Plates were incubated in sealed chambers filled with 3% O2, 5% CO2 in N2 and growth was assessed at 24 and 48 h using live cell imaging and automated counting as previously described. Growth inhibition was calculated by subtracting media only background counts and determining percentage growth relative to vehicle (0.2% DMSO) controls. The reliability of these assays was assessed by calculating Z’ factors for each plate as previously described.
On to `Cc1ccccc1C1CCCN1Cc1nc2c(cnn2C)c(=O)[nH]1` (stereo not drawn) [SN00772523], for which the “Average % Inhibition 24h” value stood at 0.0%.

The same test, now with this note: 24 h, first singlicate assay.
Consider `Cc1ccccc1C1CCCN1Cc1nc2c(cnn2C)c(=O)[nH]1` (stereo not drawn) [SN00772523], for which the “% Inhibition n=1 24h” value amounted to 0.0%.

Staying with this test, now noted: 24 h, re-assessment.
For the compound `Cc1ccccc1C1CCCN1Cc1nc2c(cnn2C)c(=O)[nH]1` (stereo not drawn) [SN00772523], the “% Inhibition n=2 24h” value worked out at 0.0%.

The same test, now with this note: 48 h.
Take `Cc1ccccc1C1CCCN1Cc1nc2c(cnn2C)c(=O)[nH]1` (stereo not drawn) [SN00772523]: the “Average % Inhibition 48h” value is listed as 28.2%.

The test is the same for the next values; noted with them: 48 h, first singlicate assay.
Regarding `Cc1ccccc1C1CCCN1Cc1nc2c(cnn2C)c(=O)[nH]1` (stereo not drawn) [SN00772523], the “% Inhibition n=1 48h” value is 56.4%.
On to `Cc1ccc(S(=O)(=O)N2CCC[C@H]2C(=O)N2CCN(CC(=O)Nc3cccc(C)c3C)CC2)cc1` [SN00772546], for which the “% Inhibition n=1 48h” value turned out to be 7.6%.
Same read-out and setting: to `Cc1nc(C2CCN(CC(=O)NC(c3ccc(F)cc3)c3cccs3)CC2)n[nH]1` (stereo not drawn) [SN00772581] belongs 24.6%; to `O=C(CCN1CCC(c2n[nH]c(C3CC3)n2)CC1)Nc1ccccc1` [SN00772586], 28.6%.
Still for that read-out and setting: with `COC(=O)c1ccc(F)c(S(=O)(=O)NC2(c3nc(C)cs3)CCC2)c1` [SN00772601] the figure was 27.1%; with `Cc1csc(C2(NC(=O)Nc3ccc4c(c3)CCO4)CCC2)n1` [SN00772607], 20.7%.
Same read-out and setting: with `Cn1c(=O)c2cc(C(=O)NC3CCSC3=O)n(Cc3ccccc3)c2n(C)c1=O` (stereo not drawn) [SN00772623] the figure was 25.0%.
As to `CCCCOC(=O)c1ccc(NC(=O)c2cc3c(=O)n(C)c(=O)n(C)c3n2CCC)cc1` [SN00772629], the “% Inhibition n=1 48h” value is 16.7%.
In the case of `O=c1onc(-c2cccnc2)n1Cc1noc(C2CC2)n1` [SN00772712], the “% Inhibition n=1 48h” value is given as 0.0%.
Still for that read-out and setting: to `CCc1nccn1CC1CCCN1` (stereo not drawn) [SN00772783] belongs 0.0%; to `O=C(Nc1cccc(-c2noc(C3CCOCC3)n2)c1)C1CC1` [SN00772921], 0.0%.
Still for that read-out and setting: to `Cc1cccc(-c2noc(CN3CC(n4cc(C)cn4)C3)n2)c1` [SN00772979] belongs 6.1%; to `COc1ccc2c(c1)CCCN(C(=O)c1nnc3ccccc3c1N)C2` [SN00773025], 10.7%.
Consider `O=C(Cc1noc(-c2ccoc2)n1)NC1CCCCC1` [SN00773041], for which the “% Inhibition n=1 48h” value is on record as 3.1%.
In the case of `c1ccc(-c2nnc(CN3CCn4c(nnc4C4CC4)C3)o2)cc1` [SN00773167], the “% Inhibition n=1 48h” value was determined as 0.0%.
For the compound `COc1ccc(NC(=O)N2CCN(CC3CCCCN3C)CC2)cn1` (stereo not drawn) [SN00773239], the “% Inhibition n=1 48h” value is reported as 0.0%.
On to `O=C(C1CC1)N1CCCCCC1C1CCN(c2nccc(C(F)(F)F)n2)CC1` (stereo not drawn) [SN00773266], for which the “% Inhibition n=1 48h” value came out at 15.0%.
Same read-out and setting: to `O=C(NC(c1ccccc1)C1CC1)c1ccc2c(c1)S(=O)(=O)Nc1ncnn1-2` (stereo not drawn) [SN00773273] belongs 0.0%; to `NC(=O)c1cnc(N2CCC3(CC2)CC3c2nc(-c3cccc(Cl)c3)no2)c(Cl)c1` (stereo not drawn) [SN00773335], 0.0%.
On to `O=C(NCc1ccco1)N1CC2C3CCC(C3)C21` (stereo not drawn) [SN00773389], for which the “% Inhibition n=1 48h” value is on record as 2.6%.
As for `CCCn1nc2c(cc1=O)CN(Cc1nc(-c3ccco3)no1)CC2` [SN00773497], the “% Inhibition n=1 48h” value was found to be 0.0%.
Turning to `CC(C)n1nc2c(cc1=O)CN(Cc1nc(-c3ccoc3)no1)CC2` [SN00773517], the “% Inhibition n=1 48h” value is listed as 10.7%.
As for `Cc1cc(C(=O)COC(=O)C2(O)CCCCC2)c(C)n1-c1c(C)n(C)n(-c2ccccc2)c1=O` [SN00773547], the “% Inhibition n=1 48h” value came out at 1.1%.
With `Cc1ccccc1Nc1nc(N)nc(CN2C(=O)NC(C)(c3cccc4ccccc34)C2=O)n1` (stereo not drawn) [SN00773551], the “% Inhibition n=1 48h” value was determined as 21.3%.
As for `C=CCn1c(SCC(=O)N2CCCCC2)nc2scc(-c3ccco3)c2c1=O` [SN00773666], the “% Inhibition n=1 48h” value came to 5.6%.
Regarding `CCn1c(CN2Cc3ccccc3C[C@H]2C(N)=O)nc2cc(S(=O)(=O)N3CCCCC3)ccc21` [SN00773766], the “% Inhibition n=1 48h” value came to 10.0%.
Still for that read-out and setting: to `CC(=O)N1CCN(Cc2nc3cc(Cl)ccc3n2C)CC1` [SN00773871] belongs 0.0%; to `O=C(Cn1c(=O)c2c(ncn2C2CCCC2)n(Cc2ccccc2)c1=O)Nc1cc(Cl)ccc1F` [SN00773912], 0.0%.
In the case of `O=c1ccccn1Cc1nnc(-c2ccc(Br)o2)o1` [SN00773952], the “% Inhibition n=1 48h” value amounted to 8.9%.
With `COc1ccc(-c2nnc(CN3C(=O)NC(C)(CCC(C)C)C3=O)o2)cc1` (stereo not drawn) [SN00773994], the “% Inhibition n=1 48h” value turned out to be 0.0%.
Take `Cc1ccc(C2(C)NC(=O)N(Cc3ncc(-c4ccccc4)o3)C2=O)cc1` (stereo not drawn) [SN00774002]: the “% Inhibition n=1 48h” value is 0.0%.
In the case of `Cc1noc(CN2C(=O)NC(C)(c3ccccc3)C2=O)n1` (stereo not drawn) [SN00774045], the “% Inhibition n=1 48h” value is 0.0%.
On to `Cn1cc(CN2C(=O)NC(C)(c3ccco3)C2=O)cn1` (stereo not drawn) [SN00774074], for which the “% Inhibition n=1 48h” value is 16.2%.
Turning to `Cc1nn(Cc2csc(-c3ccsc3)n2)c(C)c1S(=O)(=O)N1CCc2ccccc21` [SN00774089], the “% Inhibition n=1 48h” value is 7.1%.
As to `O=C(Nc1cnn(Cc2cn3ccccc3n2)c1)Nc1ccc(F)cc1F` [SN00774154], the “% Inhibition n=1 48h” value was 7.2%.
On the same count and under the same terms, to `O=C1C(=O)N(C2CCCC2)C(=O)N1Cc1nc(-c2ccsc2)no1` [SN00774178] belongs 0.0%; to `CCOc1ccccc1N1C(=O)C(=O)N(Cc2nc(C)no2)C1=O` [SN00774186], 14.0%.
Same read-out and setting: with `Cc1nn(C)c2sc(C(=O)N3CCN(S(=O)(=O)c4ccc(Br)cc4)CC3)cc12` [SN00774390] the figure was 10.6%; with `Cc1nn(Cc2ccccc2)c2sc(C(=O)N3CCN(C(=O)N4CCCCC4)CC3)cc12` [SN00774391], 14.0%; with `CC(=O)NC1CCCN(C(=O)c2cc3c(C)nn(Cc4ccc(F)cc4)c3s2)C1` (stereo not drawn) [SN00774438], 0.0%.
Turning to `CC(C)CN1CC(C(=O)N2CCC(Nc3cccnn3)CC2)CC1=O` (stereo not drawn) [SN00774466], the “% Inhibition n=1 48h” value was 0.0%.
As for `CCOC(=O)C1CCN(C(=O)c2ccc3c(c2)C(=O)N(c2ccccc2C)C3=O)CC1` [SN00774484], the “% Inhibition n=1 48h” value worked out at 0.0%.
Turning to `CC1CCN(C(=O)c2n[nH]c(=O)c3ccccc23)CC1` [SN00774511], the “% Inhibition n=1 48h” value is reported as 0.0%.
The same measure, in the same setting: with `CC(C)Cn1nc(C(=O)N2CCCCC2c2nc3ccccc3s2)c2ccccc2c1=O` (stereo not drawn) [SN00774515] the figure was 2.8%.
Still for that read-out and setting: to `Cc1ccc(-c2nc(-c3cccnc3)sc2CC(=O)Nc2ccc3nc(C)sc3c2)cc1` [SN00774529] belongs 0.0%; to `CC(C)(C)OC(=O)N1CCCC(N(Cc2ccccc2)C(=O)Cc2csc(-c3cccnc3)n2)C1` (stereo not drawn) [SN00774555], 0.0%; to `O=C(c1ccc2[nH]cnc2c1)N1CCN(Cc2cccc(Cl)c2)CC1` [SN00774568], 0.0%.
Same read-out and setting: with `C/C(=C/C(=O)N1CCN(C(=O)c2ccc3[nH]cnc3c2)CC1)C1CC1` [SN00774586] the figure was 5.9%; with `COc1ccc(C2CCCN2C(=O)c2cnn(-c3ccc(C(F)(F)F)cn3)c2C)cc1` (stereo not drawn) [SN00774591], 35.2%.
For the compound `Cc1c(C(=O)N2CCCC2Cn2cccn2)cnn1-c1ccccc1` (stereo not drawn) [SN00774604], the “% Inhibition n=1 48h” value came to 16.2%.
Regarding `O=C(NCCN1CCCCCC1=O)C1CCCN1C(=O)C1CCCC1` (stereo not drawn) [SN00774624], the “% Inhibition n=1 48h” value is reported as 0.0%.
Still for that read-out and setting: with `O=C(c1cnccn1)N1CCN(C(=O)C2CCCC2)CC1` [SN00774707] the figure was 8.7%; with `Cc1cnc(C(=O)N2CCN(C(=O)OC(C)(C)C)C(C)C2)cn1` (stereo not drawn) [SN00774718], 0.0%; with `O=C(Cc1ccccc1[N+](=O)[O-])N1CCN(C(=O)c2ccc3c(c2)OCO3)CC1` [SN00774731], 9.4%.
Same read-out and setting: with `COc1ccc(S(=O)(=O)N2CCN(C(=O)c3cc(C)n(C(C)C)c3C)CC2)cc1OC` [SN00774751] the figure was 14.4%; with `O=C(c1cc(=O)[nH]c2ccccc12)N1CCN(Cc2ccc3c(c2)OCO3)CC1` [SN00774920], 0.0%; with `O=C(C1CCCN1S(=O)(=O)c1ccc(Br)cc1)N1CCCCC1` (stereo not drawn) [SN00774966], 3.8%.
Take `O=C(C1CCCN1C(=O)C1CCCCC1)N1CCCC(c2nc(-c3ccc(Cl)cc3)no2)C1` (stereo not drawn) [SN00774977]: the “% Inhibition n=1 48h” value came out at 0.0%.
Regarding `O=C(C1CCCN(S(=O)(=O)c2ccccc2)C1)N1CCCC(C(F)(F)F)C1` (stereo not drawn) [SN00774985], the “% Inhibition n=1 48h” value is 7.6%.
Turning to `Cc1cc(C(=O)N2CCC(Oc3ccccc3)CC2)[nH]n1` [SN00775052], the “% Inhibition n=1 48h” value is 4.5%.
For the compound `O=C(c1cnn(-c2ccccc2)c1C1CC1)N1CCc2ccccc21` [SN00775113], the “% Inhibition n=1 48h” value amounted to 0.5%.
`CSc1ccc(N2CC(C(=O)N3c4ccccc4CC3C)CC2=O)cc1` (stereo not drawn) [SN00775126]: the “% Inhibition n=1 48h” value was 0.0%.
`COC(=O)c1cccc2c1CCCN2C(=O)C1CC(=O)N(CCc2ccccc2)C1` (stereo not drawn) [SN00775178]: the “% Inhibition n=1 48h” value is listed as 0.0%.
For the compound `COc1ccccc1N1CCN(C(=O)c2ccc3[nH]c(C)c(C)c3c2)CC1` [SN00775216], the “% Inhibition n=1 48h” value is on record as 36.6%.
The same measure, in the same setting: with `Cc1cc(C)n2nc(C(=O)N3CCC(CC(N)=O)CC3)nc2n1` [SN00775259] the figure was 0.0%; with `Cc1cc(C)n2nc(C(=O)N3CCCC(n4cncn4)C3)nc2n1` (stereo not drawn) [SN00775270], 8.1%.
As to `CCOC(=O)c1sc2nc(CN3CCCCC3)nc(NCCC(=O)OC)c2c1C` [SN00775388], the “% Inhibition n=1 48h” value is on record as 0.0%.
Still for that read-out and setting: to `Cc1sc2nc(CN3CCC(C)CC3)nc(N(C)Cc3nc4ccsc4c(=O)[nH]3)c2c1C` [SN00775403] belongs 11.1%; to `O=c1c(Br)c(N2CCCCC2)cnn1-c1ccccc1` [SN00775416], 8.1%; to `COc1ccc(CN2CCCN(c3ncnc4ccccc34)CC2)cc1` [SN00775453], 0.0%.

Still in this test, the particulars now being: 48 h, re-assessment.
As to `Cc1ccccc1C1CCCN1Cc1nc2c(cnn2C)c(=O)[nH]1` (stereo not drawn) [SN00772523], the “% Inhibition n=2 48h” value amounted to 0.0%.
